Measured values as given in PMC2826549 (Thrombosis research, 2009).

Experiments:
Assay type in all cases: cell-based
P2Y1 = P2Y1 (Homo sapiens, UniProt P47900); experiment: inhibition of […] ADP-induced cytosolic Ca2+ increase in human platelets
P2Y12 = P2Y12 (Homo sapiens, UniProt Q9H244); experiment: VASP phosphorylation flow cytometry in human whole blood platelets
P2X1 = target: T1, P2X1 (Homo sapiens, UniProt P51575); experiment: FLUO-4 flow cytometry of extracellular Ca2+ entry in human platelets; settings: read-out: Ap4A Agonist Activity
T1 sequence (P51575 1-399): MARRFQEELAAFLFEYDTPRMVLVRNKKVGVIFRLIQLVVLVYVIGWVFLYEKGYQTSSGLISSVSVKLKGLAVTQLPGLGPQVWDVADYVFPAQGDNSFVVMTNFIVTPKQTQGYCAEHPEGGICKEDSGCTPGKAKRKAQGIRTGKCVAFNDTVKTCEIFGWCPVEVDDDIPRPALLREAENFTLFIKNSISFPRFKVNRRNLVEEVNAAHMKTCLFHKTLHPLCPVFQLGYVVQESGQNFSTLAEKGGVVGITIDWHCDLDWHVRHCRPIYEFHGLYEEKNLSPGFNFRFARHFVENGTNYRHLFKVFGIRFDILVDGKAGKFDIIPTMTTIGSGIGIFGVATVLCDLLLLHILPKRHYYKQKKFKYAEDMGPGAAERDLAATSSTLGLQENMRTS

Chain of P2Y1 (P47900 whole entry): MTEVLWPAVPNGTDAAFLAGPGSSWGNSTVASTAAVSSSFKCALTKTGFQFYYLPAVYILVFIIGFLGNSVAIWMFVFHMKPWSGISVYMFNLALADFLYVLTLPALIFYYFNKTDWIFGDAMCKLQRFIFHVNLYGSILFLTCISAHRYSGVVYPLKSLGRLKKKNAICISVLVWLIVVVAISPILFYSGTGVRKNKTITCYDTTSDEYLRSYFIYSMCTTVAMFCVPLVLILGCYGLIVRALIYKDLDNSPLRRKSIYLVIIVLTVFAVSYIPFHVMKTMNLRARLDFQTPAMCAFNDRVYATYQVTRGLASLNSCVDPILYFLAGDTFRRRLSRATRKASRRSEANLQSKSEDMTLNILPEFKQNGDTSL
Chain of P2Y12 (Q9H244 whole entry): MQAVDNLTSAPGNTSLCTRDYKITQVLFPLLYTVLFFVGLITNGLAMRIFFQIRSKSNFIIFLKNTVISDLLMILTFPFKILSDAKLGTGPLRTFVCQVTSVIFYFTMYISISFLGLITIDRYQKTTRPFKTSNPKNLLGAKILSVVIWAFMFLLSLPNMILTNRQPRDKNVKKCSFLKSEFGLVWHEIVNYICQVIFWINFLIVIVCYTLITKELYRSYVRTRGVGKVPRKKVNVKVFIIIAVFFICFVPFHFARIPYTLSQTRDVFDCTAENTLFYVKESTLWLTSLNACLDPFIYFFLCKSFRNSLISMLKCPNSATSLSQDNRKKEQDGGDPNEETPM

IC50 (P2Y1): 40.8 ± 12.3 µM
IC50 (P2Y12): > 250 µM
EC50 (P2X1): ~0.3 µM
Compound: Nc1ncnc2c1ncn2[C@@H]1O[C@H](COP(=O)(O)OP(=O)(O)OP(=O)(O)OP(=O)(O)OC[C@H]2O[C@@H](n3cnc4c(N)ncnc43)[C@H](O)[C@@H]2O)[C@@H](O)[C@H]1O [Ap4A, Diadenosine 5',5"'-P^1,P^4-tetraphosphate]
